Measured values reported in PubChem BioAssay AID248 (DTP/NCI, 2004).
Values joined by “and” are separate entries in the source; they are usually repeats but may differ in a detail not shown here. Equal values may be shown once. Inconclusive results and toxic doses are left out.

Tested on: L1210 leukemia ip in BDF1 mice, survival T/C
Test: NCI In Vivo Anticancer Drug Screen. Data for tumor model L1210 Leukemia (intraperitoneal) in B6D2F1 (BDF1) mice
Settings: higher = longer survival
Procedure, shortened: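 Tumor was transplanted into mice, which were then dosed with test compound or vehicle alone. Survival was recorded for each group, and the treated figure was expressed relative to the control figure.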

[1] = endpoint: mean survival time, dose: 100.0 mg/kg/injection, schedule: Q01DX009 (ip), vehicle: saline
[2] = endpoint: mean survival time, dose: 200.0 mg/kg/injection, schedule: Q01DX009 (ip), vehicle: saline
[3] = endpoint: mean survival time, dose: 400.0 mg/kg/injection, schedule: Q01DX009 (ip), vehicle: saline
[4] = endpoint: mean survival time, dose: 100.0 mg/kg/injection, schedule: Q01DX001 (ip), vehicle: saline
[5] = endpoint: mean survival time, dose: 200.0 mg/kg/injection, schedule: Q01DX001 (ip), vehicle: saline
[6] = endpoint: mean survival time, dose: 400.0 mg/kg/injection, schedule: Q01DX001 (ip), vehicle: saline
[7] = endpoint: mean survival time, dose: 100.0 mg/kg/injection, schedule: Q04DX002 (ip), vehicle: Klucel (hydroxypropylcellulose) (HPC)
[8] = endpoint: mean survival time, dose: 100.0 mg/kg/injection, schedule: Q04DX003 (ip), vehicle: saline with Tween-80
[9] = endpoint: mean survival time, dose: 200.0 mg/kg/injection, schedule: Q04DX003 (ip), vehicle: saline with Tween-80
[10] = endpoint: mean survival time, dose: 400.0 mg/kg/injection, schedule: Q04DX003 (ip), vehicle: saline with Tween-80

For `COc1cc2c(cc1OC(C)=O)C(=O)CCC=C2`, the T/C [1] was 113 % of control, the T/C (endpoint: mean survival time, dose: 100.0 mg/kg/injection, schedule: Q04DX003 (ip), vehicle: other) was 110 % of control and the T/C [2] was 103 % of control. For the same compound, the T/C (endpoint: mean survival time, dose: 200.0 mg/kg/injection, schedule: Q04DX003 (ip), vehicle: other) was 115 % of control, the T/C [3] was 95 % of control and the T/C (endpoint: mean survival time, dose: 400.0 mg/kg/injection, schedule: Q04DX003 (ip), vehicle: other) was 103 % of control.
For `COC(COC(N)=O)C1=C(N2CC2)C(=O)C(C)=C(N2CC2)C1=O` (stereo not drawn), the T/C (endpoint: mean survival time, dose: 0.03 mg/kg/injection, schedule: Q01DX Z (ip), vehicle: saline) was 107 % of control, the T/C (endpoint: mean survival time, dose: 0.06 mg/kg/injection, schedule: Q01DX Z (ip), vehicle: saline) was 115 % of control and the T/C (endpoint: mean survival time, dose: 0.12 mg/kg/injection, schedule: Q01DX009 (ip), vehicle: Klucel (hydroxypropylcellulose) (HPC)) was 158 % of control. The T/C (endpoint: mean survival time, dose: 0.12 mg/kg/injection, schedule: Q01DX Z (ip), vehicle: saline) was 115 % of control, the T/C (endpoint: mean survival time, dose: 0.25 mg/kg/injection, schedule: Q01DX009 (ip), vehicle: Klucel (hydroxypropylcellulose) (HPC)) was 113 % of control and the T/C (endpoint: mean survival time, dose: 0.25 mg/kg/injection, schedule: Q01DX Z (ip), vehicle: saline) was 159 % of control. The T/C (endpoint: mean survival time, dose: 0.5 mg/kg/injection, schedule: Q01DX009 (ip), vehicle: saline) was 207 % of control, the T/C (endpoint: mean survival time, dose: 0.5 mg/kg/injection, schedule: Q01DX Z (ip), vehicle: saline) was 157 % of control and the T/C (endpoint: mean survival time, dose: 0.5 mg/kg/injection, schedule: Q04DX003 (ip), vehicle: Klucel (hydroxypropylcellulose) (HPC)) was 194 % of control. The T/C (endpoint: mean survival time, dose: 0.5 mg/kg/injection, schedule: Q04DX003 (ip), vehicle: saline) was 172 % of control, the T/C (endpoint: mean survival time, dose: 0.5 mg/kg/injection, schedule: Q08DX002 (ip), vehicle: saline) was 160 % of control and the T/C (endpoint: mean survival time, dose: 1.0 mg/kg/injection, schedule: Q01DX001 (ip), vehicle: saline with Tween-80) was 166 % of control. The T/C (endpoint: mean survival time, dose: 1.0 mg/kg/injection, schedule: Q01DX001 (ip), vehicle: saline) was 171 % of control, the T/C (endpoint: mean survival time, dose: 1.0 mg/kg/injection, schedule: Q01DX009 (ip), vehicle: saline) was 201 % of control and the T/C (endpoint: mean survival time, dose: 1.0 mg/kg/injection, schedule: Q01DX Z (ip), vehicle: saline) was 90 % of control. For the same compound, the T/C (endpoint: mean survival time, dose: 1.0 mg/kg/injection, schedule: Q04DX003 (ip), vehicle: saline) was 188 % of control, the T/C (endpoint: mean survival time, dose: 1.0 mg/kg/injection, schedule: Q08DX002 (ip), vehicle: saline) was 233 % of control and the T/C (endpoint: mean survival time, dose: 2.0 mg/kg/injection, schedule: Q01DX001 (ip), vehicle: saline with Tween-80) was 288 % of control. The T/C (endpoint: mean survival time, dose: 2.0 mg/kg/injection, schedule: Q01DX001 (ip), vehicle: saline) was 360 % of control, the T/C (endpoint: mean survival time, dose: 2.0 mg/kg/injection, schedule: Q01DX009 (ip), vehicle: Klucel (hydroxypropylcellulose) (HPC)) was 92 % of control and the T/C (endpoint: mean survival time, dose: 2.0 mg/kg/injection, schedule: Q04DX003 (ip), vehicle: Klucel (hydroxypropylcellulose) (HPC)) was 98 % of control. The T/C (endpoint: mean survival time, dose: 2.0 mg/kg/injection, schedule: Q04DX003 (ip), vehicle: saline) was 105 % of control, the T/C (endpoint: mean survival time, dose: 2.0 mg/kg/injection, schedule: Q08DX002 (ip), vehicle: saline) was 159 % of control and the T/C (endpoint: mean survival time, dose: 4.0 mg/kg/injection, schedule: Q01DX001 (ip), vehicle: saline with Tween-80) was 90 % of control. For the same compound, the T/C (endpoint: median survival time, dose: 0.5 mg/kg/injection, schedule: Q01DX001 (ip), vehicle: saline) was 100 % of control, the T/C (endpoint: median survival time, dose: 1.0 mg/kg/injection, schedule: Q01DX001 (ip), vehicle: saline) was 109 % of control and the T/C (endpoint: median survival time, dose: 2.0 mg/kg/injection, schedule: Q01DX001 (ip), vehicle: saline) was 114 % of control.
With `Cc1ccc(C2(CO)OCC(O)C(O)C2O)cc1` (stereo not drawn) the T/C [4] was 100 % of control, the T/C [5] was 96 % of control and the T/C [6] was 98 % of control.
For `O=C(COc1ccc(Cl)c(Cl)c1)Nc1ccc[n+](Cc2ccc([N+](=O)[O-])cc2)c1`, the T/C (endpoint: mean survival time, dose: 100.0 mg/kg/injection, schedule: Q04DX003 (ip), vehicle: saline) was 95 % of control, the T/C (endpoint: mean survival time, dose: 200.0 mg/kg/injection, schedule: Q04DX003 (ip), vehicle: saline) was 95 % of control and the T/C (endpoint: mean survival time, dose: 400.0 mg/kg/injection, schedule: Q04DX003 (ip), vehicle: saline) was 104 % of control.
`O=C(NC1CCCCC1)Oc1ccc2ccccc2c1` was tested, and the T/C [7] was 102 % of control, the T/C (endpoint: mean survival time, dose: 200.0 mg/kg/injection, schedule: Q04DX002 (ip), vehicle: Klucel (hydroxypropylcellulose) (HPC)) was 100 % of control and the T/C (endpoint: mean survival time, dose: 400.0 mg/kg/injection, schedule: Q04DX002 (ip), vehicle: Klucel (hydroxypropylcellulose) (HPC)) was 107 % of control.
For `O=C(O)c1cc([N+](=O)[O-])ccc1Oc1cccc(Cl)c1`, the T/C (endpoint: mean survival time, dose: 75.0 mg/kg/injection, schedule: Q01DX001 (ip), vehicle: saline) was 96 % of control, the T/C (endpoint: mean survival time, dose: 150.0 mg/kg/injection, schedule: Q01DX001 (ip), vehicle: saline) was 95 % of control and the T/C (endpoint: mean survival time, dose: 300.0 mg/kg/injection, schedule: Q01DX001 (ip), vehicle: saline) was 96 % of control.
`CNc1nc(SCc2ccccc2)c2ncn(C3OC(CO)C(O)C3O)c2n1` (stereo not drawn) was tested, and the T/C (endpoint: mean survival time, dose: 50.0 mg/kg/injection, schedule: Q01DX001 (ip), vehicle: carboxymethylcellulose (CMC)) was 106 % of control, the T/C (endpoint: mean survival time, dose: 100.0 mg/kg/injection, schedule: Q01DX001 (ip), vehicle: carboxymethylcellulose (CMC)) was 95 % of control and the T/C (endpoint: mean survival time, dose: 200.0 mg/kg/injection, schedule: Q01DX001 (ip), vehicle: carboxymethylcellulose (CMC)) was 104 % of control.
For `O=C1/C(=C/c2ccccc2)CCC2CCCCC12` (stereo not drawn), the T/C [8] was 94 % of control, the T/C [9] was 100 % of control and the T/C [10] was 94 % of control.
In the case of `CN(C)OC(=O)Nc1cccc([N+](=O)[O-])c1`, the T/C (endpoint: mean survival time, dose: 100.0 mg/kg/injection, schedule: Q04DX002 (ip), vehicle: other) is reported as 87 % of control, the T/C (endpoint: mean survival time, dose: 200.0 mg/kg/injection, schedule: Q04DX002 (ip), vehicle: other) is reported as 102 % of control and the T/C (endpoint: mean survival time, dose: 400.0 mg/kg/injection, schedule: Q04DX002 (ip), vehicle: other) is reported as 117 % of control.
In the case of `OCC/C=C/CCCO`, the T/C [1] is reported as 97 % of control, the T/C [2] is reported as 96 % of control and the T/C [3] is reported as 94 % of control.
With `CCOc1nc(=O)n(CC(=O)c2ccc(Cl)s2)cc1F` the T/C (endpoint: mean survival time, dose: 100.0 mg/kg/injection, schedule: Q01DX009 (ip), vehicle: saline with Tween-80) was 105 % of control, the T/C [8] was 103 % of control and the T/C (endpoint: mean survival time, dose: 200.0 mg/kg/injection, schedule: Q01DX009 (ip), vehicle: saline with Tween-80) was 90 % of control. For the same compound, the T/C [9] was 103 % of control, the T/C (endpoint: mean survival time, dose: 400.0 mg/kg/injection, schedule: Q01DX009 (ip), vehicle: saline with Tween-80) was 86 % of control and the T/C [10] was 94 % of control.
`CC(C)(O)CCNc1ncnc2c1ncn2C1OC(CO)C(O)C1O` (stereo not drawn) was tested, and the T/C (endpoint: mean survival time, dose: 25.0 mg/kg/injection, schedule: Q01DX005 (ip), vehicle: water) was 97 % of control and 104 % of control, the T/C (endpoint: mean survival time, dose: 50.0 mg/kg/injection, schedule: Q01DX005 (ip), vehicle: water) was 103 % of control and 110 % of control and the T/C (endpoint: mean survival time, dose: 100.0 mg/kg/injection, schedule: Q01DX005 (ip), vehicle: water) was 106 % of control and 109 % of control.
For `C=CCNC(=O)Nc1ncc([N+](=O)[O-])s1`, the T/C (endpoint: mean survival time, dose: 25.0 mg/kg/injection, schedule: Q01DX009 (ip), vehicle: Klucel (hydroxypropylcellulose) (HPC)) was 90 % of control, the T/C (endpoint: mean survival time, dose: 25.0 mg/kg/injection, schedule: Q04DX002 (ip), vehicle: Klucel (hydroxypropylcellulose) (HPC)) was 101 % of control and the T/C (endpoint: mean survival time, dose: 50.0 mg/kg/injection, schedule: Q01DX009 (ip), vehicle: Klucel (hydroxypropylcellulose) (HPC)) was 111 % of control. For the same compound, the T/C (endpoint: mean survival time, dose: 50.0 mg/kg/injection, schedule: Q04DX002 (ip), vehicle: Klucel (hydroxypropylcellulose) (HPC)) was 93 % of control and the T/C [7] was 93 % of control.
For `CCc1ccccc1NC(=O)Nc1cccc2ccccc12`, the T/C (endpoint: mean survival time, dose: 100.0 mg/kg/injection, schedule: Q01DX009 (ip), vehicle: gum acacia) was 98 % of control, the T/C (endpoint: mean survival time, dose: 100.0 mg/kg/injection, schedule: Q04DX003 (ip), vehicle: gum acacia) was 96 % of control and the T/C (endpoint: mean survival time, dose: 200.0 mg/kg/injection, schedule: Q01DX009 (ip), vehicle: gum acacia) was 95 % of control. The T/C (endpoint: mean survival time, dose: 200.0 mg/kg/injection, schedule: Q04DX003 (ip), vehicle: gum acacia) was 96 % of control, the T/C (endpoint: mean survival time, dose: 400.0 mg/kg/injection, schedule: Q01DX009 (ip), vehicle: gum acacia) was 88 % of control and the T/C (endpoint: mean survival time, dose: 400.0 mg/kg/injection, schedule: Q04DX003 (ip), vehicle: gum acacia) was 93 % of control.
With `COC1C=CC(OC)(C(OC)OC)O1` (stereo not drawn) the T/C [4] was 104 % of control, the T/C [5] was 101 % of control and the T/C [6] was 98 % of control.
For `COc1ccc(-c2c(C(=O)O)cccc2[N+](=O)[O-])c(OC)c1`, the T/C (endpoint: mean survival time, dose: 100.0 mg/kg/injection, schedule: Q01DX003 (ip), vehicle: Klucel (hydroxypropylcellulose) (HPC)) was 98 % of control, the T/C (endpoint: mean survival time, dose: 200.0 mg/kg/injection, schedule: Q01DX003 (ip), vehicle: Klucel (hydroxypropylcellulose) (HPC)) was 91 % of control and the T/C (endpoint: mean survival time, dose: 400.0 mg/kg/injection, schedule: Q01DX003 (ip), vehicle: Klucel (hydroxypropylcellulose) (HPC)) was 86 % of control.
